The record followed here is publication PMC8286840, “Identifying SARS-CoV-2 antiviral compounds by screening for small molecule inhibitors of Nsp3 papain-like protease” (Biochemical Journal, 2021).

Test [1] deals with T1, SARS-CoV-2 PLpro (nsp3 1564–1878) (Severe acute respiratory syndrome coronavirus 2, UniProt P0DTD1). As to the kind of experiment: biochemical. The settings on record: high concentration screen, read-out: % of control remaining. Set-up: FRET-quenched peptide (Pro3) cleavage by PLpro, 10 min pre-incubation, slope over 20 min, normalised to no-compound control.
Test [2] deals with T1, SARS-CoV-2 PLpro (nsp3 1564–1878). As to the kind of experiment: biochemical. Also on record: FRET-quenched peptide (Pro3) cleavage by PLpro, 10 min pre-incubation, slope over 20 min, normalised to no-compound control. The conditions noted are these: low concentration screen, read-out: % of control remaining.

Where a name gives a salt, the structure may show the parent alone. Read-outs that look alike come from different tables or passages of the source.

`OCc1ccc(-c2nn(Cc3ccccc3)c3ccccc23)o1` [Lificiguat]: the remaining activity at 3.75 µM in test [1] (Well no.=7713) was 82.8%. The remaining activity at 1.25 µM in test [2] (Well no.=7713) turned out to be 99%.

Consider `CS(=O)(=O)c1cccc(C[C@H](NC(=O)c2c(Cl)cc3c(c2Cl)CCN(C(=O)c2ccc4ccoc4c2)C3)C(=O)O)c1` [Lifitegrast], for which, in test [1] (Well no.=8038), the remaining activity at 3.75 µM came out at 95.3%. Besides, in test [2] (Well no.=8038), the remaining activity at 1.25 µM worked out at 94.5%.

Take `CC1(C)O[C@H]2CC(=O)OC[C@]23[C@H]2CC[C@@]4(C)[C@H](c5ccoc5)OC(=O)[C@H]5O[C@]54[C@]2(C)C(=O)C[C@@H]13` [Limonin]: the remaining activity at 3.75 µM in test [1] (Well no.=3655) was 102%. The remaining activity at 1.25 µM in test [2] (Well no.=3655) came to 99.2%.

Take `CC#CCn1c(N2CCC[C@@H](N)C2)nc2c1c(=O)n(Cc1nc(C)c3ccccc3n1)c(=O)n2C` [Linagliptin (BI-1356)]: in test [1] (Well no.=4883), the remaining activity at 3.75 µM turned out to be 93.9%. Also, the remaining activity at 1.25 µM in test [2] (Well no.=4883) came out at 97%.

Consider `CCC[C@@H]1C[C@@H](C(=O)N[C@@H]([C@H]2O[C@H](SC)[C@H](O)[C@@H](O)[C@H]2O)[C@@H](C)O)N(C)C1` [Lincomycin], for which the results for the remaining activity at 3.75 µM in test [1] (Well no.=1549) and in test [1] (Well no.=3377) were 105% and 96.8%, respectively. Also, the results for the remaining activity at 1.25 µM in test [2] (Well no.=1549) and in test [2] (Well no.=3377) were 102% and 96.3%, respectively.

Take `CC(=O)NC[C@H]1CN(c2ccc(N3CCOCC3)c(F)c2)C(=O)O1` [Linezolid]: the remaining activity at 3.75 µM in test [1] (Well no.=1782) was found to be 98.8%. The remaining activity at 1.25 µM in test [2] (Well no.=1782) turned out to be 102%.

As to `CCCCC/C=C\C/C=C\CCCCCCCC(N)=O` [Linoleamide], in test [1] (Well no.=4338), the remaining activity at 3.75 µM was 92.5%. Also, the remaining activity at 1.25 µM in test [2] (Well no.=4338) turned out to be 101%.

In the case of `CCCCC/C=C\C/C=C\CCCCCCCC(=O)O` [Linoleic acid], the remaining activity at 3.75 µM in test [1] (Well no.=4349) stood at 101%; in test [1] (Well no.=7029) it was 85.7%. For the same compound, the remaining activity at 1.25 µM in test [2] (Well no.=4349) was 103%; in test [2] (Well no.=7029) it was 94.8%.

Regarding `CC/C=C\C/C=C\C/C=C\CCCCCCCC(=O)O` [Linolenic acid], the remaining activity at 3.75 µM was found to be 102% in test [1] (Well no.=4305) and 100% in test [1] (Well no.=4358). Also, the remaining activity at 1.25 µM in test [2] (Well no.=4305) is 103%; in test [2] (Well no.=4358), 101%.

Take `O=C1N(c2ccccc2)c2ccccc2C1(Cc1ccncc1)Cc1ccncc1` [Linopirdine]: the remaining activity at 3.75 µM in test [1] (Well no.=822) turned out to be 105%. Further, the remaining activity at 1.25 µM in test [2] (Well no.=822) stood at 104%.

Turning to `C[C@@H](C(=O)Nc1ccc(Cl)cc1)[C@H]1CC[C@@H](c2ccnc3ccc(F)cc32)CC1` [Linrodostat], the remaining activity at 3.75 µM in test [1] (Well no.=8267) is 99.1%. Besides, the remaining activity at 1.25 µM in test [2] (Well no.=8267) is 97.9%.

On to `O=C(O)CCCC[C@@H]1CCSS1` [Lipoic acid], for which the remaining activity at 3.75 µM in test [1] (Well no.=6915) worked out at 104%. Besides, in test [2] (Well no.=6915), the remaining activity at 1.25 µM came out at 105%.

For `Clc1cccc(CN=C2Nc3ccccc3NC23CCNCC3)c1` [Liproxstatin-1], the remaining activity at 3.75 µM in test [1] (Well no.=5945) turned out to be 97.6%; in test [1] (Well no.=6402), 93.9%. Besides, the remaining activity at 1.25 µM in test [2] (Well no.=5945) was 98.7%; in test [2] (Well no.=6402), 94.5%.

In the case of `COc1cccc(N(C)C(=S)Oc2ccc3c(c2)CCCC3)n1` [Liranaftate], in test [1] (Well no.=4672), the remaining activity at 3.75 µM worked out at 101%. Besides, in test [2] (Well no.=4672), the remaining activity at 1.25 µM was found to be 101%.

Regarding `NCCCC[C@H](N[C@@H](CCc1ccccc1)C(=O)O)C(=O)N1CCC[C@H]1C(=O)O` [Lisinopril (dihydrate)], the remaining activity at 3.75 µM in test [1] (Well no.=7736) was found to be 96.7%. Further, the remaining activity at 1.25 µM in test [2] (Well no.=7736) was 95.6%.

With `NCCCC[C@H](N[C@@H](CCc1ccccc1)C(=O)O)C(=O)N1CCC[C@H]1C(=O)O` [Lisinopril], the remaining activity at 3.75 µM in test [1] (Well no.=2270) worked out at 93.2%. In test [2] (Well no.=2270), the remaining activity at 1.25 µM came to 91.3%.

In the case of `C[C@H](CCC(=O)O)[C@H]1CC[C@H]2[C@@H]3CC[C@@H]4C[C@H](O)CC[C@]4(C)[C@H]3CC[C@]12C` [Lithocholic acid], the figures for the remaining activity at 3.75 µM in test [1] (Well no.=4646) and in test [1] (Well no.=7307) were 93.6% and 89.6%, respectively. Further, the remaining activity at 1.25 µM in test [2] (Well no.=4646) stood at 95.7%; in test [2] (Well no.=7307), 97.4%.

For the compound `Cc1ccc(F)cc1C(=O)Nc1ccc(C(=O)N2Cc3cccn3Cc3ccccc32)c(Cl)c1` [Lixivaptan], in test [1] (Well no.=6957), the remaining activity at 3.75 µM came to 88.9%. The remaining activity at 1.25 µM in test [2] (Well no.=6957) stood at 91.5%.

As to `CN1[C@@H](CC(=O)c2ccccc2)CCC[C@H]1C[C@H](O)c1ccccc1` [Lobeline (hydrochloride)], the remaining activity at 3.75 µM in test [1] (Well no.=8326) came out at 100%. The remaining activity at 1.25 µM in test [2] (Well no.=8326) stood at 104%.

Take `N#Cc1cc(NC(=O)C(=O)O)c(Cl)c(NC(=O)C(=O)O)c1` [Lodoxamide]: the remaining activity at 3.75 µM in test [1] (Well no.=8241) was 105%. The remaining activity at 1.25 µM in test [2] (Well no.=8241) worked out at 107%.

Turning to `CC(Oc1c(Cl)cccc1Cl)C1=NCCN1` (centres unmarked) [Lofexidine.HCl], the remaining activity at 3.75 µM in test [1] (Well no.=1971) is 102%. The remaining activity at 1.25 µM in test [2] (Well no.=1971) amounted to 101%.

For `CCn1cc(C(=O)O)c(=O)c2cc(F)c(N3CCNC(C)C3)c(F)c21` (centres unmarked) [Lomefloxacin hydrochloride], the remaining activity at 3.75 µM in test [1] (Well no.=929) was determined as 94.8%. The remaining activity at 1.25 µM in test [2] (Well no.=929) worked out at 98.7%.

As to `CCn1cc(C(=O)O)c(=O)c2cc(F)c(N3CCNC(C)C3)c(F)c21` (centres unmarked) [Lomefloxacin], the remaining activity at 3.75 µM in test [1] (Well no.=2272) came out at 96.1%. Further, the remaining activity at 1.25 µM in test [2] (Well no.=2272) is 95.3%.

Take `Nc1nc(OCc2cc(Br)cs2)c2[nH]cnc2n1` [Lomeguatrib]: the remaining activity at 3.75 µM in test [1] (Well no.=5885) is 105%. The remaining activity at 1.25 µM in test [2] (Well no.=5885) came out at 105%.

As to `COc1ccc(CN2CCN(C(c3ccc(F)cc3)c3ccc(F)cc3)CC2)c(OC)c1OC` [Lomerizine], the remaining activity at 3.75 µM in test [1] (Well no.=1941) was 100%. For the same compound, the remaining activity at 1.25 µM in test [2] (Well no.=1941) was determined as 98.3%.

As to `O=C(NC1CCN(CCCCC2(C(=O)NCC(F)(F)F)c3ccccc3-c3ccccc32)CC1)c1ccccc1-c1ccc(C(F)(F)F)cc1` [Lomitapide], the remaining activity at 3.75 µM in test [1] (Well no.=8672) was determined as 93.5%. Further, in test [2] (Well no.=8672), the remaining activity at 1.25 µM was 93.8%.

On to `COC(=O)c1ccc(O)c2nc3c(C=O)c(O)cc(O)c3nc12` [Lomofungin], for which the remaining activity at 3.75 µM in test [1] (Well no.=1551) worked out at 102%. In addition, the remaining activity at 1.25 µM in test [2] (Well no.=1551) was determined as 102%.

Regarding `NC(=O)N1CCC(CC(=O)N2CCC([C@H]3c4ncc(Br)cc4CCc4cc(Cl)cc(Br)c43)CC2)CC1` [Lonafarnib (SCH66336)], in test [1] (Well no.=4781), the remaining activity at 3.75 µM is 101%. In addition, the remaining activity at 1.25 µM in test [2] (Well no.=4781) was 105%.

Regarding `O=C(O)c1nn(Cc2ccc(Cl)cc2Cl)c2ccccc12` [Lonidamine], in test [1] (Well no.=1121), the remaining activity at 3.75 µM was found to be 97%. Moreover, in test [2] (Well no.=1121), the remaining activity at 1.25 µM amounted to 92.8%.
